The results in this text go back to patent publication US20060252807A1, “Novel ortho-terphenyl inhibitors of p38 kinase and methods of treating inflammatory disorders” (Kalypsys, Inc., priority 2005, published 2006).

Bounds are passed on as bounds.

T1 sequence (Q16539 whole entry): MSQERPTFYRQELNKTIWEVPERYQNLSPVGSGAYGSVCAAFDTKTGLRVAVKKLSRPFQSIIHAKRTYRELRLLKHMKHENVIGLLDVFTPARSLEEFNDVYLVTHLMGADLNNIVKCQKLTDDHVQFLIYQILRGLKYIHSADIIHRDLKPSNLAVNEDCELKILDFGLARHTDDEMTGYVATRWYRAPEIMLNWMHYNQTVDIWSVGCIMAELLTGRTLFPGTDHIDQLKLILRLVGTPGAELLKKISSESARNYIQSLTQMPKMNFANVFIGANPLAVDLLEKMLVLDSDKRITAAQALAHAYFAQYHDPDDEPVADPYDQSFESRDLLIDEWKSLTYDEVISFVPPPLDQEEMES

The first assay concerns the target T1, active p38 alpha enzyme (Upstate Biotechnology) (Homo sapiens, UniProt Q16539).
T1 construct: purchased Upstate Biotechnology
The assay can be described thus: p38α biochemical assay (ATP turnover, luminescent detection, Cambrex PKlight). As to conditions: p38α biochemical assay, Table 1 Biological Activity. An outline of the steps:
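Active p38α phosphorylates MapkapK2 whole protein with 1.4 uM final ATP, 2 h at 30C, in Tris/MOPS buffer with MgCl2, CaCl2, EGTA, EDTA, glycerol, β-mercaptoethanol and 1 mg/ml BSA. Compounds pin-delivered from DMSO; total ATP turnover read by luminescence after PKlight addition.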
In general, IC50 refers to the midpoint of a concentration-inhibition curve. Higher therefore signals a need for much substance. Consider `CC(C)NC(=O)c1csc(-c2oc(CN3CCN(C(=O)c4ccc5ccccc5c4O)CC3)nc2-c2ccc(F)cc2)n1` [Example 482], for which the concentration for half-maximal inhibition (IC50) is greater than 1000 nM. `Cc1c(C(=O)NCc2onc(-c3ccc(F)cc3)c2-c2nc(C(=O)NC(C)C)cs2)cccc1[N+](=O)[O-]` [Example 698] gave an IC50 greater than 1000 nM.

As to `COc1cccc(C(=O)N2CCN(Cc3nc(-c4ccc(F)cc4)c(-c4nc(C(=O)NC(C)C)cs4)o3)CC2)c1OC` [Example 465], the IC50 is greater than 1000 nM. Still for that read-out and setting: the value for `Cc1ccccc1C(=O)N1CCN(Cc2nc(-c3ccc(F)cc3)c(-c3nc(C(=O)NC(C)C)cs3)o2)CC1` [Example 359] was greater than 1000 nM. `COc1ccc(O)c(C(=O)NCc2nc(-c3ccc(F)cc3)c(-c3nc(C(=O)NC(C)C)cs3)o2)c1` [Example 187] came in with an IC50 greater than 1000 nM. The molecule `CC(C)NC(=O)c1csc(-c2oc(CN3CCN(C(=O)Cc4ccccc4O)CC3)nc2-c2ccc(F)cc2)n1` [Example 380] registered an IC50 of no more than 1000 nM. The same measure, in the same setting: the value for `CC(C)NC(=O)c1csc(-c2oc(CNC(=O)c3cccc(O)c3O)nc2-c2ccc(F)cc2)n1` [Example 147] was no more than 1000 nM; that for `CC(C)NC(=O)c1csc(-c2oc(CN3CCN(C(=O)c4c(F)cccc4Cl)CC3)nc2-c2ccc(F)cc2)n1` [Example 437] was greater than 1000 nM. Regarding `Cc1cccc([N+](=O)[O-])c1C(=O)N1CCN(Cc2nc(-c3ccc(F)cc3)c(-c3nc(C(=O)NC(C)C)cs3)o2)CC1` [Example 457], the IC50 was no more than 1000 nM. In turn, `CC(C)NC(=O)c1csc(-c2oc(CNC(=O)/C=C/c3ccccc3C(F)(F)F)nc2-c2ccc(F)cc2)n1` [Example 296] showed an IC50 greater than 1000 nM. Turning to `Cc1[nH]nc(-c2ccc(F)cc2)c1-c1nc(C(=O)NCc2ccccn2)cs1` [Example 75, 2-|3-(4-Fluoro-phenyl)-5-methyl-1H-pyrazol-4-yl|-thiazole-4-carboxylic acid (pyridin-2-ylmethyl)-amide], the half-inhibitory concentration (IC50) is no more than 1000 nM. On the same count and under the same terms, the value for `CC(C)NC(=O)c1csc(-c2oc(CN3CCN(C(=O)c4cncc(Br)c4)CC3)nc2-c2ccc(F)cc2)n1` [Example 514] was greater than 1000 nM. On the same count and under the same terms, the value for `CC(C)NC(=O)c1csc(-c2oc(CNC(=O)C3CCCCC3)nc2-c2ccc(F)cc2)n1` [Example 118] was no more than 1000 nM; that for `CC(C)NC(=O)c1csc(-c2oc(CN3CCN(C(=O)c4cccc(C#N)c4)CC3)nc2-c2ccc(F)cc2)n1` [Example 367] was greater than 1000 nM; that for `CC(C)NC(=O)c1csc(-c2oc(CNC(=O)c3cnc(O)c(Cl)c3)nc2-c2ccc(F)cc2)n1` [Example 198] was no more than 1000 nM. For `Cc1ccc(C(=O)N2CCN(Cc3nc(-c4ccc(F)cc4)c(-c4nc(C(=O)NC(C)C)cs4)o3)CC2)c(C)c1` [Example 371], the IC50 was no more than 1000 nM.

The same assay, now with this note: p38α kinase; Table 1 Biological Activity.
Turning to `Cc1cnc(CNC(=O)c2csc(-c3sc(C)nc3-c3ccc(F)cc3)n2)cn1` [Example 1757], the IC50 is no more than 1000 nM. Regarding `CC(C)NC(=O)c1csc(-c2oc(CNc3cc(C(F)(F)F)ccc3F)nc2-c2ccc(F)cc2)n1` [Example 1364], the IC50 was greater than 1000 nM. The molecule `Cc1nc(-c2ccc(F)cc2)c(-c2nc(C(=O)NCc3cccc(C(F)(F)F)c3)cs2)s1` [Example 1819] yielded an IC50 of no more than 1000 nM. Same read-out and setting: the value for `CC(=O)Nc1ccc(NCc2onc(-c3ccc(F)cc3)c2-c2nc(C(=O)NC(C)C)cs2)cn1` [Example 1676] was greater than 1000 nM. Same read-out and setting: the value for `Cc1cc(C)cc(NCc2nc(-c3ccc(F)cc3)c(-c3nc(C(=O)NC(C)C)cs3)o2)c1` [Example 1323] was greater than 1000 nM; that for `Cc1cccc(CCC(=O)N2CCC(c3[nH]nc(-c4ccc(F)cc4)c3-c3nc(C(=O)NC(C)C)cs3)CC2)c1` [Example 887] was greater than 1000 nM. Same read-out and setting: the value for `COc1ccc(N2CCN(Cc3onc(-c4ccc(F)cc4)c3-c3nc(C(=O)NC(C)C)cs3)CC2)cc1OC` [Example 1628] was greater than 1000 nM; that for `CC(C)NC(=O)c1csc(-c2c(-c3ccc(F)cc3)n[nH]c2C2CCN(C(=O)Cc3ccc(C(F)(F)F)cc3)CC2)n1` [Example 993] was greater than 1000 nM; that for `CCN(CC)CCNCc1onc(-c2ccc(F)cc2)c1-c1nc(C(=O)NC(C)C)cs1` [Example 1426] was greater than 1000 nM.

`CC1(C)CC(NC(=O)c2csc(-c3c(-c4ccc(F)cc4)n[nH]c3C3CCNCC3)n2)CC(C)(C)N1` [Example 2129] had an IC50 greater than 1000 nM. Molecule `Cc1nc(-c2ccc(F)cc2)c(-c2nc(C(=O)NN3CCOCC3)cs2)s1` [Example 1737] registered an IC50 greater than 1000 nM. For the molecule `CCOC(=O)CC1C(=O)NCCN1Cc1onc(-c2ccc(F)cc2)c1-c1nc(C(=O)NC(C)C)cs1` (stereo not shown) [Example 1583], the IC50 is greater than 1000 nM. Still for that read-out and setting: the value for `Cc1nc(-c2ccc(F)cc2)c(-c2nc(C(=O)NN3CCN(C)CC3)cs2)s1` [Example 1749] was greater than 1000 nM. With `CC(C)NC(=O)c1csc(-c2c(-c3ccc(F)cc3)noc2CN(CCO)[C@H](C)c2ccccc2)n1` [Example 1570], the concentration for half-maximal inhibition (IC50) was greater than 1000 nM. Same read-out and setting: the value for `CC(C)NC(=O)c1csc(-c2c(-c3ccc(F)cc3)noc2CNC2CONC2=O)n1` (stereo not shown) [Example 1412] was greater than 1000 nM.

In the case of `Cc1nc(-c2ccc(F)cc2)c(-c2nc(C(=O)NCc3cccc(Cl)c3)cs2)s1` [Example 1785], the IC50 is no more than 1000 nM. On the same count and under the same terms, the value for `CCOC(=O)C1CCN(C(=O)c2csc(-c3sc(C)nc3-c3ccc(F)cc3)n2)CC1` [Example 1887] was greater than 1000 nM. Still for that read-out and setting: the value for `Cc1nc(-c2ccc(F)cc2)c(-c2nc(C(=O)N3CCN(c4cccc(Cl)c4)CC3)cs2)s1` [Example 1924] was greater than 1000 nM; that for `CC(C)NC(=O)c1csc(-c2c(-c3ccc(F)cc3)noc2CN(CCCO)Cc2ccccn2)n1` [Example 1571] was greater than 1000 nM; that for `COc1cc(/C=C/C(=O)N2CCC(c3[nH]nc(-c4ccc(F)cc4)c3-c3nc(C(=O)NC(C)C)cs3)CC2)ccc1O` [Example 975] was greater than 1000 nM. The same measure, in the same setting: the value for `CC(C)NC(=O)c1csc(-c2c(-c3ccc(F)cc3)n[nH]c2C2CCN(C(=O)c3ccccc3C(=O)c3ccc(O)cc3)CC2)n1` [Example 1036] was greater than 1000 nM. `Cc1nc(-c2ccc(F)cc2)c(-c2nc(C(=O)N(CCO)[C@H](C)c3ccccc3)cs2)s1` [Example 1895] showed an IC50 greater than 1000 nM. The same measure, in the same setting: the value for `CC(C)NC(=O)c1csc(-c2c(-c3ccc(F)cc3)noc2CNCCc2ccccc2Cl)n1` [Example 1478] was greater than 1000 nM; that for `CCOC(=O)CC(C)NCc1nc(-c2ccc(F)cc2)c(-c2nc(C(=O)NC(C)C)cs2)o1` (stereo not shown) [Example 1111] was greater than 1000 nM; that for `CCOC(=O)CC1C(=O)NCCN1C(=O)c1csc(-c2sc(C)nc2-c2ccc(F)cc2)n1` (stereo not shown) [Example 1908] was no more than 1000 nM. Still for that read-out and setting: the value for `CC(C)NC(=O)c1csc(-c2oc(CNCCc3c[nH]c4ccccc34)nc2-c2ccc(F)cc2)n1` [Example 1157] was greater than 1000 nM. The same measure, in the same setting: the value for `Cc1ccc(NCc2onc(-c3ccc(F)cc3)c2-c2nc(C(=O)NC(C)C)cs2)c(C)c1` [Example 1645] was greater than 1000 nM.

`Cc1ccc(N2CCN(Cc3onc(-c4ccc(F)cc4)c3-c3nc(C(=O)NC(C)C)cs3)CC2)cc1C` [Example 1592] returned an IC50 greater than 1000 nM. On the same count and under the same terms, the value for `O=C(NCCc1ccccc1F)c1csc(-c2c(-c3ccc(F)cc3)n[nH]c2C2CCNCC2)n1` [Example 2105] was greater than 1000 nM. Still for that read-out and setting: the value for `Cc1ccc([C@H](C)NC(=O)c2csc(-c3c(-c4ccc(F)cc4)n[nH]c3C3CCNCC3)n2)cc1` [Example 2092] was greater than 1000 nM.
